Assay results published in PubChem BioAssay AID1259407 (Chemical Carcinogenesis Research Information System (CCRIS), 2018).
Activity calls are given as the source filed them. How the calls were made is not given here.

Tested on: CCRIS mutagenicity, Ames/micronucleus/aberration tests
Assay: CCRIS mutagenicity studies
[1] = Test System: AMES SALMONELLA TYPHIMURIUM, Strain/Indicator: TA98, Metabolic Activation: NONE, Method: PREINCUBATION

In the case of CCCC(=O)O, the mutagenic call (Test System: AMES SALMONELLA TYPHIMURIUM, Strain/Indicator: TA97, Metabolic Activation: NONE, Method: PREINCUBATION) is reported as “inactive; negative”, the mutagenic call (Test System: AMES SALMONELLA TYPHIMURIUM, Strain/Indicator: TA97, Metabolic Activation: RAT, LIVER, S-9, AROCLOR 1254, Method: PREINCUBATION) is reported as “inactive; negative” and the mutagenic call [1] is reported as “inactive; negative”. The mutagenic call (Test System: AMES SALMONELLA TYPHIMURIUM, Strain/Indicator: TA98, Metabolic Activation: RAT LIVER S-9, PHENOBARBITAL AND BETA-NAPHTHOFLAVONE, Method: PREINCUBATION) was “inactive; negative”, the mutagenic call (Test System: AMES SALMONELLA TYPHIMURIUM, Strain/Indicator: TA100, Metabolic Activation: NONE, Method: PREINCUBATION) was “inactive; negative” and the mutagenic call (Test System: AMES SALMONELLA TYPHIMURIUM, Strain/Indicator: TA100, Metabolic Activation: RAT LIVER S-9, PHENOBARBITAL AND BETA-NAPHTHOFLAVONE, Method: PREINCUBATION) was “inactive; negative”. The mutagenic call (Test System: AMES SALMONELLA TYPHIMURIUM, Strain/Indicator: TA102, Metabolic Activation: NONE, Method: PREINCUBATION) was “inactive; negative”, the mutagenic call (Test System: AMES SALMONELLA TYPHIMURIUM, Strain/Indicator: TA102, Metabolic Activation: RAT LIVER S-9, PHENOBARBITAL AND BETA-NAPHTHOFLAVONE, Method: PREINCUBATION) was “inactive; negative” and the mutagenic call (Test System: AMES SALMONELLA TYPHIMURIUM, Strain/Indicator: TA102, Metabolic Activation: RAT, LIVER, S-9, AROCLOR 1254, Method: PREINCUBATION) was “inactive; negative”. For the same compound, the mutagenic call (Test System: AMES SALMONELLA TYPHIMURIUM, Strain/Indicator: TA104, Metabolic Activation: NONE, Method: PREINCUBATION) was “inactive; negative”, the mutagenic call (Test System: AMES SALMONELLA TYPHIMURIUM, Strain/Indicator: TA104, Metabolic Activation: RAT LIVER S-9, PHENOBARBITAL AND BETA-NAPHTHOFLAVONE, Method: PREINCUBATION) was “inactive; negative” and the mutagenic call (Test System: AMES SALMONELLA TYPHIMURIUM, Strain/Indicator: TA1535, Metabolic Activation: NONE, Method: PREINCUBATION) was “inactive; negative”. The mutagenic call (Test System: AMES SALMONELLA TYPHIMURIUM, Strain/Indicator: TA1535, Metabolic Activation: RAT LIVER S-9, PHENOBARBITAL AND BETA-NAPHTHOFLAVONE, Method: PREINCUBATION) was “inactive; negative”, the mutagenic call (Test System: AMES SALMONELLA TYPHIMURIUM, Strain/Indicator: TA1537, Metabolic Activation: NONE, Method: PREINCUBATION) was “inactive; negative” and the mutagenic call (Test System: AMES SALMONELLA TYPHIMURIUM, Strain/Indicator: TA1537, Metabolic Activation: RAT LIVER S-9, PHENOBARBITAL AND BETA-NAPHTHOFLAVONE, Method: PREINCUBATION) was “inactive; negative”. For the same compound, the mutagenic call (Test System: E.COLI, Strain/Indicator: WP2UVRA/PKM101, Metabolic Activation: NONE, Method: PREINCUBATION) was “inactive; negative”, the mutagenic call (Test System: E.COLI, Strain/Indicator: WP2UVRA/PKM101, Metabolic Activation: RAT LIVER S-9, PHENOBARBITAL AND BETA-NAPHTHOFLAVONE, Method: PREINCUBATION) was “inactive; negative” and the mutagenic call (Test System: E.COLI, Strain/Indicator: WP2UVRA, Metabolic Activation: NONE, Method: PREINCUBATION) was “inactive; negative”. The mutagenic call (Test System: E.COLI, Strain/Indicator: WP2UVRA, Metabolic Activation: RAT LIVER S-9, PHENOBARBITAL AND BETA-NAPHTHOFLAVONE, Method: PREINCUBATION) was “inactive; negative”.
CCCCN(CC)c1c([N+](=O)[O-])cc(C(F)(F)F)cc1[N+](=O)[O-] was tested, and the mutagenic call (End Point: In vitro Chromosomal aberration, Test System: CHO cells, Metabolic Activation: None) was “inactive; negative” and the mutagenic call (End Point: In vitro Chromosomal aberration, Test System: CHO cells, Metabolic Activation: Rodent, liver, S-9, Aroclor) was “inactive; negative”.
In the case of O[C@H]1C=Cc2ccc3nc4ccc5ccccc5c4cc3c2[C@@H]1O, the mutagenic call (Test System: AMES SALMONELLA TYPHIMURIUM, Strain/Indicator: TA98, Metabolic Activation: GUINEA PIG, LIVER, S-9, 3-METHYLCHOLANTHRENE, Method: STANDARD PLATE) is reported as “active; positive”, the mutagenic call (Test System: AMES SALMONELLA TYPHIMURIUM, Strain/Indicator: TA100, Metabolic Activation: GUINEA PIG, LIVER, S-9, 3-METHYLCHOLANTHRENE, Method: STANDARD PLATE) is reported as “active; positive” and the mutagenic call (Test System: CHINESE HAMSTER V-79, Strain/Indicator: V-79/6-THIOGUANINE, Metabolic Activation: GUINEA PIG, LIVER, S-9, 3-METHYLCHOLANTHRENE) is reported as “active; positive”.
With O=C1c2ccccc2-c2cc([N+](=O)[O-])ccc21 the mutagenic call (Test System: AMES SALMONELLA TYPHIMURIUM, Strain/Indicator: TA98 (1,8-DNP6), Metabolic Activation: NONE, Method: PREINCUBATION) was “active; positive”, the mutagenic call (Test System: AMES SALMONELLA TYPHIMURIUM, Strain/Indicator: TA98(NR), Metabolic Activation: NONE, Method: PREINCUBATION) was “active; positive” and the mutagenic call (Test System: AMES SALMONELLA TYPHIMURIUM, Strain/Indicator: TA98(NR), Metabolic Activation: RAT LIVER S-9 (10%), Method: PREINCUBATION) was “active; positive”. The mutagenic call (Test System: AMES SALMONELLA TYPHIMURIUM, Strain/Indicator: TA98(NR), Metabolic Activation: RAT LIVER S-9, 3-METHYLCHOLANTHRENE (10%), Method: PREINCUBATION) was “active; positive”, the mutagenic call (Test System: AMES SALMONELLA TYPHIMURIUM, Strain/Indicator: TA98(NR), Metabolic Activation: RAT LIVER S-9, BETA-NAPHTHAFLAVONE (10%), Method: PREINCUBATION) was “active; positive” and the mutagenic call (Test System: AMES SALMONELLA TYPHIMURIUM, Strain/Indicator: TA98(NR), Metabolic Activation: RAT LIVER S-9, PCB (10%), Method: PREINCUBATION) was “active; positive”. For the same compound, the mutagenic call (Test System: AMES SALMONELLA TYPHIMURIUM, Strain/Indicator: TA98(NR), Metabolic Activation: RAT LIVER S-9, PHENOBARBITAL (10%), Method: PREINCUBATION) was “active; positive”, the mutagenic call [1] was “active; positive” and the mutagenic call (Test System: AMES SALMONELLA TYPHIMURIUM, Strain/Indicator: TA98, Metabolic Activation: NONE, Method: STANDARD PLATE) was “active; positive”. For the same compound, the mutagenic call (Test System: AMES SALMONELLA TYPHIMURIUM, Strain/Indicator: TA98, Metabolic Activation: RAT, LIVER, S-9, AROCLOR 1254, Method: STANDARD PLATE) was “active; positive”, the mutagenic call (Test System: AMES SALMONELLA TYPHIMURIUM, Strain/Indicator: TA100, Metabolic Activation: NONE, Method: STANDARD PLATE) was “inactive; negative” and the mutagenic call (Test System: AMES SALMONELLA TYPHIMURIUM, Strain/Indicator: TA100, Metabolic Activation: RAT, LIVER, S-9, AROCLOR 1254, Method: STANDARD PLATE) was “inactive; negative”. For the same compound, the mutagenic call (Test System: AMES SALMONELLA TYPHIMURIUM, Strain/Indicator: TA7001, Metabolic Activation: NONE, Method: PREINCUBATION) was “inactive; negative”, the mutagenic call (Test System: AMES SALMONELLA TYPHIMURIUM, Strain/Indicator: TA7002, Metabolic Activation: NONE, Method: PREINCUBATION) was “active; positive” and the mutagenic call (Test System: AMES SALMONELLA TYPHIMURIUM, Strain/Indicator: TA7003, Metabolic Activation: NONE, Method: PREINCUBATION) was “active; positive”. The mutagenic call (Test System: AMES SALMONELLA TYPHIMURIUM, Strain/Indicator: TA7004, Metabolic Activation: NONE, Method: PREINCUBATION) was “active; positive”, the mutagenic call (Test System: AMES SALMONELLA TYPHIMURIUM, Strain/Indicator: TA7005, Metabolic Activation: NONE, Method: PREINCUBATION) was “active; positive” and the mutagenic call (Test System: AMES SALMONELLA TYPHIMURIUM, Strain/Indicator: TA7006, Metabolic Activation: NONE, Method: PREINCUBATION) was “active; positive”.
